# Data as given in US5925621A, “Method for preventing sexually transmitted diseases” (priority 1997, dated 1999).
# Assays:
# [1] = tested on: vaginal/cervical epithelial and other cells; settings: cited from earlier work
# [2] = tested on: MT2 cells; assay: cytotoxicity of test compound towards host (MT2) cells; type: cell-based; settings: at the levels of Example 5
# Description: Serial dilutions of the test compounds (ranging from 0.1 μg/ml to 1.0 mg/ml) were added to HIV-1 virus such that 50 μl inoculum produced between 70 to 100 syncytia per well in untreated wells containing MT2 cells. The HIV-1 used was strain IIIs propagated in, and harvested from, a T4-lymphobastoid cell line. Each serial dilution of the test compound with virus was placed in each of three wells containing MT2 cells. The test compound alone was added to a fourth well containing MT2 cells to test for possible cytotoxicity. Triplicate virus control samples (no added test compounds but containing the equivalent amounts of the RPMI medium) were also included.
# [3] = tested on: sheep testicular hyaluronidase; assay: hyaluronidase inhibition (hyaluronic acid hydrolysis); type: biochemical; settings: 10 minutes preincubation, pH 5.5; inactive = no inhibition at 1 mg/ml
# Description: Hyaluronidase activity was quantitatively determined by measuring the extent of hyaluronic acid hydrolysis (i.e., the concentration of N-acetylglucosamine-reactive material formed from enzyme activity). Reaction mixtures (0.25 ml) containing the following were prepared: test compound (variable concentration); 0.1 M sodium acetate; 0.15 M sodium chloride; pH adjusted to 5.5; 7.2 units sheep testicular hyaluronidase (Sigma, Type III; H-2251) contained in an acetate buffer; 0.3 mg/ml hyaluronic acid (Sigma, from bovine vitreous humor; H-7630). The enzyme was preincubated with the test agent (1 mg/ml for screening purposes) for 10 minutes before starting the reaction by the addition of hyaluronic acid. The enzyme reaction was determined using the method of Aronson and Davidson (J. Biol. Chem. 241 437-440 (1967)). The reaction mixture was incubated for 30 minutes at room temperature. The reaction product was determined calorimetrically with p-dimethylaminobenzaldehyde (Reissig et al., J. Biol. Chem. 217 959-966 (1965)) by measuring the absorbance at 545 nm.
# The reversibility of the hyaluronidase was determined by evaluating enzyme activity at different levels of enzyme (Ackermann and Potter, Proc. Soc. Exp. Biol. Med. 72 1-9 (1949)).
# [4] = tested on: Lactobacillus gasseri; assay: effect on normal vaginal flora (Lactobacillus gasseri growth); type: cell-based; settings: 0.5 mg/ml
# Description: This example illustrates the effect of the inhibitory agents of this invention on the normal vaginal flora. Lactobacillus gasseri, which is found in normal vaginal flora, was obtained from the American Type Culture Collection (Rockville, Md.) and cultured under anaerobic conditions at 37° C. in the presence of the desired test agents. Control samples without added test agents were also run. Samples were collected at twenty minute intervals starting at 120 minutes after the start of incubation through 240 minutes. The absorbance at 550 nm was used to estimate the cell density and inhibitory effects. Nonoxynol-9 was also evaluated for comparison purposes.
substance,measurement,setting,value
Nonoxynol-9,lowest concentration that can injure vaginal/cervical epithelial and other cells,[1],about 0.0005%
same,cytotoxic towards the MT2 cells,[2],did show cytotoxic effects
same,IC50 hyaluronidase,[3],inactive
same,inhibition of growth of Lactobacillus gasseri,[4],about 60%
